The source of these data is PMC6934184, “Selective DNA-PKcs inhibition extends the therapeutic index of localized radiotherapy and chemotherapy” (The Journal of Clinical Investigation, 2019).

The inhibition is the change of the read-out against control, counted positive when it falls.

This test has as its target T1, RPS6KA6 (RSK4) (Homo sapiens, UniProt Q9UK32).
T1 construct: purchased Thermo Fisher Scientific (Life Technologies) SelectScreen
Kind of test: SelectScreen Z'LYTE. The class given is biochemical. The method, boiled down:
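Percent values come from Thermo SelectScreen profiling of NU5455, combining activity and binding assays. CSF1R was run in Z'LYTE format at Km app ATP, and CAMK1 in Adapta format with ATP listed at 10.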

SMILES strings stand for the structures.

T1 sequence (Q9UK32 whole entry): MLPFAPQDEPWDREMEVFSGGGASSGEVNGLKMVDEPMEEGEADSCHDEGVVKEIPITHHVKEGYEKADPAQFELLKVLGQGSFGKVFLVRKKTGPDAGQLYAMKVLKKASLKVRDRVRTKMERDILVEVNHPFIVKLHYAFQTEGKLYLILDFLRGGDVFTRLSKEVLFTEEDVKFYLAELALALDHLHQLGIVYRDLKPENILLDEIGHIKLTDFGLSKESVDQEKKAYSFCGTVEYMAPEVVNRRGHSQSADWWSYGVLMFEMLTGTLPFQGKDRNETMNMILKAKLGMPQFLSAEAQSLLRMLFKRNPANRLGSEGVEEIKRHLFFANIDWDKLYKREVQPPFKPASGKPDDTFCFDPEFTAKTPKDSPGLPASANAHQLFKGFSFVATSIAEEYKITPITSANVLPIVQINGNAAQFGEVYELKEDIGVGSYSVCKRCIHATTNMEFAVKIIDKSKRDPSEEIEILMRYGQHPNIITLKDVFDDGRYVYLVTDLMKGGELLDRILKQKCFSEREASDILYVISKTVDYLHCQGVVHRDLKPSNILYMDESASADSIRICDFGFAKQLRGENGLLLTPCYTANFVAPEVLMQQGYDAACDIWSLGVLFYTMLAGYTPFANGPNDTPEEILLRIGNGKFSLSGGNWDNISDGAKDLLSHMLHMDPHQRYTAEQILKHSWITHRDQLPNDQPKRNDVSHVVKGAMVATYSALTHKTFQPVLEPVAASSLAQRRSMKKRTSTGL

Consider `CN(C(=O)CN1CCOCC1)c1ccc2sc3c(-c4cccc5c(=O)cc(N6CC7CCC(C6)O7)oc45)cccc3c2c1` [NU5455], for which the inhibition at 1 µM was 3.8%.
